Here are results for three compounds from paper PMC5788402, “Impact of Target Warhead and Linkage Vector on Inducing Protein Degradation: Comparison of Bromodomain and Extra-Terminal (BET) Degraders Derived from Triazolodiazepine (JQ1) and Tetrahydroquinoline (I-BET726) BET Inhibitor Scaffolds” (Journal of Medicinal Chemistry, 2017).

Where two headings read alike, the source gives them in different places.

One test concerns the target T1, Brd4 (Homo sapiens, UniProt O60885).
T1 construct: endogenous in cells; host or cells: MV4;11; HL60
Briefly: Brd4 depletion in HL60 (immunoblot). It counts as cell-based. In general terms: In western blotting, separated proteins are transferred to a membrane and probed.

In the next test the target is Brd4 tandem bromodomain. The settings on record: cited from earlier work.
Test [1] deals with VCB / Brd4^BD2 ternary complex (Homo sapiens, UniProt O60885+P40337). As to the kind of experiment: ITC ternary titration, VCB into Brd4^BD2–PROTAC complex. It counts as binding.
For test [2], the target named is VCB / Brd2BD1 ternary complex (Homo sapiens, UniProt P25440+P40337). As to the kind of experiment: ITC ternary titration, VCB into Brd2BD1:10. It counts as binding. The source says: (§1) Bromodomain and VCB complex constructs and protein preparation were described in a previous publication.[5] Wild-type version of human proteins VHL (UniProt accession number P40337), ElonginC (Q15369), ElonginB (Q15370), and the bromodomains of Brd2 (P25440), Brd3 (Q15059), and Brd4 (O60885) were used for all protein expression. In brief, the His6-tagged constructs were transformed into E. coli BL21(DE3) and induced with IPTG to produce the desired proteins. […] After cleaving the His-tag by TEV protease, a second Ni affinity column purification was performed to obtain tag-free protein in the flow-through. VCB was then additionally purified by anion exchange using MonoQ (GE Healthcare). For all proteins, purity was further polished by gel filtration chromatography.
(§2) Titrations were performed on an ITC200 microcalorimeter (GE Healthcare) as previously reported.[5] The titrations were in ITC buffer (20 mM Bis-Tris propane, 150 mM NaCl, 1 mM tris(2-carboxyethyl)phosphine (TCEP), pH 7.4), supplemented with either 0.2% or 3% DMSO and consisted of 19 injections of 2 μL of protein solution at a rate of 0.5 μL/s at 120 s time intervals. An initial injection of protein (0.4 μL) was made and discarded during data analysis. All experiments were performed at 25 °C, while stirring at 600 rpm. PROTACs were diluted from a 10 mM DMSO stock solution to 20 μM in ITC buffer with the final concentration of DMSO to be 0.2% for triazolodiazepine-based PROTAC or 3% for tetrahydroquinoline-based PROTAC. Bromodomain protein in the same buffer was titrated into the PROTAC in the cell. At the end of the titration, the excess of solution was removed from the cell, the syringe was washed and dried, and VCB complex (168 μM, in the same buffer) was loaded in the syringe and titrated into the complex of PROTAC–bromodomain. The concentration of the complex in the cell (C) after the first titration (16.8 μM) was calculated as follows: [drawing 1] where C0 is the initial concentration of the PROTAC in the cell (20 μM), Vcell is the volume of the sample cell (200.12 μL), and Vinj is the volume of titrant injected during the first titration (38.4 μL). Titrations for the binary complex PROTAC–VCB were performed in the same manner with VCB titrated into 16.8 μM PROTAC in the cell. […] The data were fitted to a single-binding-site model to obtain the stoichiometry n, the dissociation constant Kd, and the enthalpy of binding ΔH using the Microcal LLC ITC200 Origin software provided by the manufacturer.
(§3) Table S1. ITC results for the formation of binary and ternary complexes between 10, BET Bromodomain and VCB
(§4) Protein in Species in cell Kd (nM) ΔG (kcal × ΔH (kcal × -TΔS (kcal N α ΔpKd
(§5) Syringe mol-1) mol-1) × mol-1)
(§6) Titrations were performed at 25°C in duplicate except for VCB into 10, which was performed in quadruplicate.
(§7) Values reported are the mean ± s.e.m.

A further test concerns the target Brd3BD1 (Homo sapiens, UniProt Q15059). Briefly: ITC binary titration, Brd3BD1 into 10. The settings on record: Brd3BD1 in syringe. Format: binding.
Excerpt: as §1, §2, §3, §4, §5, §6, §7

For another test, the target named is Brd4^BD2 (Homo sapiens, UniProt O60885). Briefly: ITC binary titration, Brd4^BD2 into PROTAC. It counts as binding. The settings on record: Brd4^BD2 in syringe, PROTAC in cell.
For the next test, the target named is Brd2BD1 (Homo sapiens, UniProt P25440). Briefly: ITC binary titration, Brd2BD1 into 10. It counts as binding. The conditions noted are these: Brd2BD1 in syringe.
Excerpt: as §1, §2, §3, §4, §5, §6, §7

Test [3] deals with VHL-EloC-EloB protein (VCB) (Homo sapiens, UniProt P40337). As to the kind of experiment: ITC binary titration, VCB into PROTAC. Format: binding. The conditions noted are these: VCB in syringe, PROTAC in cell.
A further test has as its target Brd3BD2 (Homo sapiens, UniProt Q15059). Briefly: ITC binary titration, Brd3BD2 into 10. The conditions noted are these: Brd3BD2 in syringe. Format: binding.
Excerpt: as §1, §2, §3, §4, §5, §6, §7

Test [4] addresses VCB / Brd4BD1 ternary complex (Homo sapiens, UniProt O60885+P40337). As to the kind of experiment: ITC ternary titration, VCB into Brd4BD1:10. Format: binding.
Excerpt: as §1, §2, §3, §4, §5, §6, §7

Another test deals with Brd4BD1 (Homo sapiens, UniProt O60885). As to the kind of experiment: ITC binary titration, Brd4BD1 into 10. The conditions noted are these: Brd4BD1 in syringe. Format: binding.
Excerpt: as §1, §2, §3, §4, §5, §6, §7

The target in test [5] is VCB / Brd3BD1 ternary complex (Homo sapiens, UniProt P40337+Q15059). Briefly: ITC ternary titration, VCB into Brd3BD1:10. Format: binding.
Excerpt: as §1, §2, §3, §4, §5, §6, §7

The target of the next test is Brd2BD2 (Homo sapiens, UniProt P25440). Briefly: ITC binary titration, Brd2BD2 into 10. Format: binding. The settings on record: Brd2BD2 in syringe.
Excerpt: as §1, §2, §3, §4, §5, §6, §7

Test [6] deals with VCB / Brd2BD2 ternary complex (Homo sapiens, UniProt P25440+P40337). Briefly: ITC ternary titration, VCB into Brd2BD2:10. It counts as binding.
Excerpt: as §1, §2, §3, §4, §5, §6, §7

Test [7] concerns BET proteins Brd2, Brd3, Brd4. Briefly: BET degradation profile in HeLa cells. Format: cell-based.
The target of test [8] is VCB / Brd3BD2 ternary complex (Homo sapiens, UniProt P40337+Q15059). Briefly: ITC ternary titration, VCB into Brd3BD2:10. It counts as binding.
Excerpt: as §1, §2, §3, §4, §5, §6, §7

Chain of Brd2BD1 (P25440 74-180 limits assumed): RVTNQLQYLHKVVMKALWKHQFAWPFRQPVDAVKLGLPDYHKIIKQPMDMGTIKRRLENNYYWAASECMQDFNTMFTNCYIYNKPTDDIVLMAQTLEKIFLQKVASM
Chain of Brd3BD1 (Q15059 34-140 limits assumed): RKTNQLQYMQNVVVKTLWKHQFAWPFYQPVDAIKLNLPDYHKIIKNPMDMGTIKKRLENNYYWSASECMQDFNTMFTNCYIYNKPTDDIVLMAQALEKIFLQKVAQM
Chain of Brd3BD2 (Q15059 306-415 limits assumed): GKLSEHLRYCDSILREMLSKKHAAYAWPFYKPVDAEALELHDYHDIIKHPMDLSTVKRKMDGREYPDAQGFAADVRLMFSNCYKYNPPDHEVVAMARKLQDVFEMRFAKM
Chain of Brd2BD2 (P25440 344-453 limits assumed): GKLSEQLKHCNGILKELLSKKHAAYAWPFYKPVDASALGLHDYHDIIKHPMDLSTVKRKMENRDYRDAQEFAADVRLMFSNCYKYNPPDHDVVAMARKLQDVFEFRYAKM

Consider `Cc1sc2c(c1C)C(c1ccc(Cl)cc1)=N[C@@H](CC(=O)OC(C)(C)C)c1nnc(C)n1-2` [compound 3], for which, on Brd4, the “Brd4 depletion (%) HL60” value is “–243/20%”.

`CC(=O)N1c2ccc(-c3ccc(C(=O)O)cc3)cc2[C@H](Nc2ccc(Cl)cc2)C[C@@H]1C` [compound 4]: on Brd4 tandem bromodomain, the Kd (commonly the equilibrium constant for the complex coming apart) is 4 nM. The “Brd4 depletion (%) HL60” value at Brd4 (50 nM, 4 h, HL60) is “–157%”.

In the case of `CC(=O)N1c2ccc(-c3ccc(C(=O)NCCOCCOCCOCCOCC(=O)N[C@H](C(=O)N4C[C@H](O)C[C@H]4C(=O)NCc4ccc(-c5scnc5C)cc4)C(C)(C)C)cc3)cc2[C@H](Nc2ccc(Cl)cc2)C[C@@H]1C` [compound 10, (2S,4R)-1-((S)-1-(4-((2S,4R)-1-Acetyl-4-((4-chlorophenyl)amino)-2-methyl-1,2,3,4-tetrahydroquinolin-6-yl)phenyl)-18-(tert-butyl)-1,16-dioxo-5,8,11,14-tetraoxa-2,17-diazanonadecan-19-oyl)-4-hydroxy-N-(4-(4-methylthiazol-5-yl)benzyl)pyrrolidine-2-carboxamide], the α was 0.6 in test [1] (cooperativity, ratio between binary and ternary Kd, Brd4^BD2); 0.3 in test [2] (cooperativity, Brd2BD1); 0.5 in test [4] (cooperativity, Brd4BD1); 0.7 in test [5] (cooperativity, Brd3BD1); 0.3 in test [6] (cooperativity, Brd2BD2); 0.3 in test [8] (cooperativity, Brd3BD2). In test [1] (ternary complex formation with VCB and Brd4^BD2, as tabulated in Table 2), the “cooperativity (α) Brd4–BD2” value was determined as 0.59. Besides, in test [1] (ternary vs binary, Brd4^BD2), the “ΔpKd ± uncertainty” value is recorded as “–0.22 ± 0.08”. In addition, the stoichiometry N (usually a count of units in the complex or per binding partner) in test [1] (ternary, VCB in syringe, Brd4^BD2–PROTAC in cell) is given as 0.87 ± 0.02; on Brd4^BD2 it was 0.86 ± 0.06; in test [3] it was 0.92 ± 0.15. Further, the ΔpKd in [2] (ternary vs binary, Brd2BD1) was 0.41 ±0.23; in test [4] (ternary vs binary, Brd4BD1) it was 0.29 ±0.14; in test [5] (ternary vs binary, Brd3BD1), 0.14 ±0.09; in [6] (ternary vs binary, Brd2BD2) it was 0.52 ±0.17; in [8] (ternary vs binary, Brd3BD2), 0.58 ±0.14. For the same compound, the “-TΔS” value is -4.19 ± 0.92 kcal/mol in [2] (ternary, VCB into Brd2BD1:10); 3.2 ± 0.2 kcal/mol on Brd3BD1; 1.86 ± 0.02 kcal/mol on Brd2BD1; 3.0 ± 0.1 kcal/mol at Brd3BD2; -6.63 ± 0.09 kcal/mol in test [4] (ternary, VCB into Brd4BD1:10); 1.6 ± 0.7 kcal/mol on Brd4BD1. Also, the “-TΔS” value in test [5] (ternary, VCB into Brd3BD1:10) is -5.18 ± 0.14 kcal/mol; at Brd2BD2, -1.19 ± 0.07 kcal/mol; in [6] (ternary, VCB into Brd2BD2:10) it was -1.02 ± 0.61 kcal/mol; in test [8] (ternary, VCB into Brd3BD2:10) it was -1.37 ± 0.54 kcal/mol. The N in [2] (ternary, VCB into Brd2BD1:10) turned out to be 0.99 ±0.08; on Brd3BD1 it was 0.98 ±0.04; on Brd2BD1, 1.00 ±0.08; on Brd3BD2, 1.02 ±0.09; in [4] (ternary, VCB into Brd4BD1:10), 0.70 ±0.07; at Brd4BD1, 0.73 ±0.02. In addition, the N is 1.03 ±0.18 in test [5] (ternary, VCB into Brd3BD1:10); 0.84 ±0.05 at Brd2BD2; 0.73 ±0.02 in test [6] (ternary, VCB into Brd2BD2:10); 1.03 ±0.15 in [8] (ternary, VCB into Brd3BD2:10). Besides, the ΔG in [2] (ternary, VCB into Brd2BD1:10) was -8.95 ± 0.31 kcal/mol; at Brd3BD1 it was -10.1 ± 0.1 kcal/mol; on Brd2BD1 it was -10.0 ± 0.2 kcal/mol; at Brd3BD2 it was -10.9 ± 0.3 kcal/mol; in test [4] (ternary, VCB into Brd4BD1:10) it was -9.11 ± 0.18 kcal/mol; on Brd4BD1 it was -10.3 ± 0.4 kcal/mol. In addition, the ΔG was -9.31 ± 0.12 kcal/mol in test [5] (ternary, VCB into Brd3BD1:10); -11.3 ± 0.01 kcal/mol at Brd2BD2; -8.80 ± 0.23 kcal/mol in test [6] (ternary, VCB into Brd2BD2:10); -8.71 ± 0.18 kcal/mol in [8] (ternary, VCB into Brd3BD2:10). The ΔH in test [2] (ternary, VCB into Brd2BD1:10) is -4.76 ± 0.62 kcal/mol; at Brd3BD1, -13.3 ± 0.4 kcal/mol; on Brd2BD1, -11.9 ± 0.2 kcal/mol; on Brd3BD2, -13.9 ± 0.4 kcal/mol; in test [4] (ternary, VCB into Brd4BD1:10), -2.47 ± 0.09 kcal/mol; on Brd4BD1, -11.9 ± 0.3 kcal/mol. In addition, the ΔH in [5] (ternary, VCB into Brd3BD1:10) is -4.13 ± 0.02 kcal/mol; on Brd2BD2, -10.1 ± 0.1 kcal/mol; in test [6] (ternary, VCB into Brd2BD2:10), -7.77 ± 0.37 kcal/mol; in [8] (ternary, VCB into Brd3BD2:10), -7.33 ± 0.36 kcal/mol. Also, the Kd at Brd3BD1 (10 in cell, 25°C) was 39 ± 8 nM; at Brd2BD1 (10 in cell, 25°C) it was 45 ± 13 nM; at Brd3BD2 (10 in cell, 25°C), 11 ± 5 nM; in test [4] (ternary, VCB in syringe, Brd4BD1:10 in cell, 25°C), 221 ± 65 nM; on Brd4BD1 (10 in cell, 25°C), 39 ± 24 nM; in [5] (ternary, VCB in syringe, Brd3BD1:10 in cell, 25°C) it was 152 ± 30 nM. Moreover, the Kd on Brd2BD2 (10 in cell, 25°C) was 5 ± 0.1 nM; in test [6] (ternary, VCB in syringe, Brd2BD2:10 in cell, 25°C) it was 384 ± 145 nM; in [8] (ternary, VCB in syringe, Brd3BD2:10 in cell, 25°C), 434 ± 128 nM. Moreover, the “window of concentration for selective degradation of BRD3/4” value in test [7] lay in the range of 30 to 100 nM. Besides, the “concentration with increased levels of BET proteins (hook effect)” value in [7] (24 h) was in the range of 1 to 10 µM. Moreover, the intra-BET degradation selectivity result in test [7] (24 h) is “depletion selectivity for Brd4 and Brd3 over Brd2”.
